Experimental data published in patent US20120053184A1, “SALTS OF 3-(1H-IND0L-3-YL)-4-[2-(4-METHYL-PIPERAZIN-I-YL)-QUINAZOLIN-4-YL]-PYRROLE-2, 5-DI ONE” (priority 2007, published 2012).

Assays:
[1] = stability in the solid state (heat, heat/humidity, light); assay type: physicochemical; conditions: after one week at 80° C. in a close container, or at 80° C./75% r.h. in open container, or upon exposure to light (1200 kLux, 300-800 nm)
Source text: Criteria for selecting the salts of the invention include i) dissolution in water, with measurement of degradation products, and decoloration, ii) stability against heat in solid state, iii) exposure to light (e.g. Xenon light), iv) corosivity to steel.

[2] = solubility in aqueous media; assay type: physicochemical
Source text: Therefore it is not straightforward or easy to formulate it into pharmaceutical compositions, e.g. for oral administration.

For `CN1CCN(c2nc(C3=C(c4c[nH]c5ccccc45)C(=O)NC3=O)c3ccccc3n2)CC1.O=C(O)/C=C\C(=O)O` [maleate, Maleate Salt of 3-(1.H.-indol-3-yl)-4-[2-(4-methyl-piperazin-1-yl)-quinazolin-4-yl]-pyrrole-2,5-dione], the “stability in the solid state” value [1] was “very good stability”.

In the case of `CN1CCN(c2nc(C3=C(c4c[nH]c5ccccc45)C(=O)NC3=O)c3ccccc3n2)CC1` [free base, 3-(1.H.-indol-3-yl)-4-[2-(4-methyl-piperazin-1-yl)-quinazolin-4-yl]-pyrrole-2,5-dione], the “solubility in aqueous media” value [2] is reported as “relatively low solubility”.

With `CN1CCN(c2nc(C3=C(c4c[nH]c5ccccc45)C(=O)NC3=O)c3ccccc3n2)CC1.CS(=O)(=O)O` [mesylate salt, Mesylate Salt of 3-(1.H.-indol-3-yl)-4-[2-(4-methyl-piperazin-1-yl)-quinazolin-4-yl]-pyrrole-2,5-dione] the “stability in the solid state” value [1] was “very good stability”.
